Experimental findings from patent US20250332300A1 (priority 2024, published 2025) are described below.

Assay type in all cases: binding
The target of assay [1] is T1, human HER2 (23-652) (Homo sapiens, UniProt P04626). In words: Surface plasmon resonance (SPR) for assessment of peptide affinity, human HER2. Details: towards human HER2 (23-652) and mouse HER2 (23-653); made in house. A digest of the protocol: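 Binding kinetics fitted from sensorgrams with 280 s peptide association then 3000 s dissociation (30 uL/min), using HER2 (23-652) either directly immobilized (SA/CM5) or anti-Fc-captured; 3 M magnesium chloride used for regeneration.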
On the technique in general: Surface plasmon resonance follows binding to a sensor surface in real time, without labels.

The target in assay [2] is T1, human HER2 (23-652). In words: TR-FRET competition assay for peptide potency, human HER2. Details: towards human HER2 (23-652) and mouse HER2 (23-653); made in house; host or cells: mammalian cells. To be noted: huHER2 TR-FRET IC50, TR-FRET competition with Cy5 labeled peptide probe, 0.1 nM human HER2, 24 h incubation.
The target of assay [3] is T2, mouse HER2 (23-653) (Mus musculus, UniProt P70424). In words: TR-FRET competition assay for peptide potency, mouse HER2. Details: mouse HER2 (23-653) using a Cy5 labeled peptide as a probe; made in house; host or cells: mammalian cells. To be noted: 0.1 nM mouse HER2, 24 h incubation.
In assay [4] the target is T2, mouse HER2 (23-653). Kind of assay: Surface plasmon resonance (SPR) for assessment of peptide affinity, mouse HER2. Further details: mouse HER2 (23-653) using a Cy5 labeled peptide as a probe; made in house. The text has this:
Each protein was immobilized either onto a SA sensorchip (Cytiva, BR-1005-31) or CM5 sensorchip (Cytiva, BR-1005-30) to a density of 800-2000 RU.

Where [5] appears, read: moHER2 TR-FRET IC50, TR-FRET competition with Cy5 labeled peptide probe.

Where a name gives a salt, the structure may show the parent alone. Read-outs that look alike come from different tables or passages of the source. Positions of bridges follow the written chain, without caps; N, C: chain ends. Non-standard residues stand in square brackets, D forms with d. Residues, ends and D or L forms follow the SMILES beside them. Trp(5-OH) = N[C@@H](Cc1c[nH]c2ccc(O)cc12)C(=O)O; NMePhe(4-F) = CN[C@@H](Cc1ccc(F)cc1)C(=O)O; NMehPhe = CN[C@@H](CCc1ccccc1)C(=O)O; Aad = N[C@@H](CCCC(=O)O)C(=O)O; Gly(cPr) = N[C@H](C(=O)O)C1CC1; NMeDap = CN[C@@H](CN)C(=O)O; NMeS = CN[C@@H](CO)C(=O)O

A word on the Kd: it is the equilibrium constant for the complex coming apart. The term IC50 denotes the concentration at which inhibition is half-maximal. In the case of `CN1C(=O)[C@H](CO)NC(=O)[C@H](Cc2ccc(O)cc2)NC(=O)[C@@H](N)CCCC(=O)NC[C@@H](C(=O)N(C)[C@@H](Cc2ccc(F)cc2)C(N)=O)N(C)C(=O)[C@H](C2CC2)NC(=O)[C@H](Cc2c[nH]c3ccccc23)NC(=O)[C@H](Cc2c[nH]c3ccc(O)cc23)NC(=O)[C@H](CO)N(C)C(=O)[C@@H]1CCc1ccccc1` [Example A36, (3S,6S,9S,12S,15S,18S,21S,24S,27S)-9-((1H-indol-3-yl)methyl)-27-amino-N-((S)-1-amino-3-(4-fluorophenyl)-1-oxopropan-2-yl)-6-cyclopropyl-12-((5-hydroxy-1H-indol-3-yl)methyl)-24-(4-hydroxybenzyl)-15,21-bis(hydroxymethyl)-N,4,16,19-tetramethyl-5,8,11,14,17,20,23,26,31-nonaoxo-18-phenethyl-1,4,7,10,13,16,19,22,25-nonaazacyclohentriacontane-3-carboxamide TFA salt] (H-[Aad]YS[NMehPhe][NMeS][Trp(5-OH)]W[Gly(cPr)][NMeDap][NMePhe(4-F)]-NH2; lactam 1-9), the dissociation constant (Kd) turned out to be 38 nM on human HER2 (23-652) [1] and 34 nM on mouse HER2 (23-653) [4] (SPR, mouse HER2 extracellular domain, 25° C., 1:1 binding model, read-out: moHER2-SPR-ONC KD). The IC50 on human HER2 (23-652) [2] worked out at 52 nM; at mouse HER2 (23-653) [3] (TR-FRET competition with Cy5 labeled peptide probe, read-out: moHER2 TR-FRET IC50), 102 nM.

For `CN1C(=O)[C@H](CO)NC(=O)[C@H](Cc2ccc(O)cc2)NC(=O)[C@@H](N)CC(=O)NC[C@@H](C(=O)N(C)[C@@H](Cc2ccc(F)cc2)C(N)=O)N(C)C(=O)[C@H](C2CC2)NC(=O)[C@H](Cc2c[nH]c3ccccc23)NC(=O)[C@H](Cc2c[nH]c3ccc(O)cc23)NC(=O)[C@H](CO)N(C)C(=O)[C@@H]1CCc1ccccc1` [Example A37, (3S,6S,9S,12S,15S,18S,21S,24S,27S)-9-((1H-indol-3-yl)methyl)-27-amino-N-((S)-1-amino-3-(4-fluorophenyl)-1-oxopropan-2-yl)-6-cyclopropyl-12-((5-hydroxy-1H-indol-3-yl)methyl)-24-(4-hydroxybenzyl)-15,21-bis(hydroxymethyl)-N,4,16,19-tetramethyl-5,8,11,14,17,20,23,26,29-nonaoxo-18-phenethyl-1,4,7,10,13,16,19,22,25-nonaazacyclononacosane-3-carboxamide TFA salt] (H-DYS[NMehPhe][NMeS][Trp(5-OH)]W[Gly(cPr)][NMeDap][NMePhe(4-F)]-NH2; lactam 1-9), the dissociation constant (Kd) on human HER2 (23-652) [1] is 452 nM; at mouse HER2 (23-653) [4], 213 nM. The IC50 at human HER2 (23-652) [2] was 810 nM; on mouse HER2 (23-653) [3] (setting [5]), more than 1000 nM.

For the compound `CN1C(=O)[C@H](Cc2ccc(O)cc2)NC(=O)[C@@H](N)CCC(=O)NC[C@@H](C(=O)N(C)[C@@H](Cc2ccc(F)cc2)C(N)=O)N(C)C(=O)[C@H](C2CC2)NC(=O)[C@H](Cc2c[nH]c3ccccc23)NC(=O)[C@H](Cc2c[nH]c3ccc(O)cc23)NC(=O)[C@H](CO)N(C)C(=O)[C@H](CCc2ccccc2)N(C)C(=O)[C@@H]1CO` [Example A38, (3S,6S,9S,12S,15S,18S,21S,24S,27S)-9-((1H-indol-3-yl)methyl)-27-amino-N-((S)-1-amino-3-(4-fluorophenyl)-1-oxopropan-2-yl)-6-cyclopropyl-12-((5-hydroxy-1H-indol-3-yl)methyl)-24-(4-hydroxybenzyl)-15,21-bis(hydroxymethyl)-N,4,16,19,22-pentamethyl-5,8,11,14,17,20,23,26,30-nonaoxo-18-phenethyl-1,4,7,10,13,16,19,22,25-nonaazacyclotriacontane-3-carboxamide TFA salt] (H-EY[NMeS][NMehPhe][NMeS][Trp(5-OH)]W[Gly(cPr)][NMeDap][NMePhe(4-F)]-NH2; lactam 1-9), the Kd was 46 nM on human HER2 (23-652) [1] and 67 nM on mouse HER2 (23-653) [4]. Moreover, the values for the IC50 on human HER2 (23-652) [2] and at mouse HER2 (23-653) [3] (setting [5]) were 93 nM and 206 nM, respectively.
